Values joined by “and” are separate entries in the source; they are usually repeats but may differ in a detail not shown here. Equal entries are not always repeated.

These results are taken from patent US20210267900A1, “PROCESSING METHOD FOR DRUG SUBSTANCE PARTICLES OF NON-UNIFORM PARTICLE SIZE” (NIPPON ZOKI PHARMACEUTICAL CO., LTD., priority 2018, published 2021).

The nature of data set [1]: Particle size distribution by sieving method (ro-tap-type sieve shaker). The class given is physicochemical. To be noted: drug substance before processing, % by weight.
Text: (§1) In the present invention, the particle size distribution of each of the drug substance (A) and the powder (B) can be determined by a weight-based distribution evaluation by a sieving method (measurement device: a ro-tap-type sieve shaker or the like) and a volume-based distribution evaluation by a laser-diffraction method (also referred to as “a laser diffraction scattering method”) (measurement device: Mastersizer 2000 or Mastersizer 3000 [Malvern] or the like, dispersion compression air pressure: 2 to 4 bars).
The nature of data set [2]: Particle size distribution by laser-diffraction method (Mastersizer 2000). As to conditions: drug substance before processing. The class given is physicochemical.
Text: as §1

Consider `CC(C)C[C@H](CN)CC(=O)O` [Pregabalin, pregabalin], for which the “particles each having a particle size of 60 μm or less” value in data set [1] stood at 14.5%.

As to `CC(C)Cc1ccc(C(C)C(=O)O)cc1` (stereo not shown) [Ibuprofen, ibuprofen], in data set [1], the “particles each having a particle size of 60 μm or less” value came out at 27.2% and the “particles each having a particle size of 500 μm or more” value came to 11%.

Turning to `CC(=O)Nc1ccc(O)cc1` [Acetaminophen, acetaminophen], in data set [1], the “particles each having a particle size of 60 μm or less” value came out at 32.9% and the “particles each having a particle size of 500 μm or more” value came out at 14%. Further, in data set [2], the “particles each having a particle size of 50 μm or less” value was 25.11 % by volume and 21.08 % by volume; the “particles each having a particle size of 500 μm or more” value was 3.57 % by volume and 5.82 % by volume.
